Experimental data from the supplement of paper PMC10307832.

Experiments:
Assay in all cases: relative viability (nuclei count vs DMSO), 5 days (fraction); higher = more cells survive
Nelarabine + Decitabine = compound: COc1nc(N)nc2c1ncn2[C@@H]1O[C@H](CO)[C@@H](O)[C@@H]1O [Nelarabine] + Nc1ncn([C@H]2C[C@H](O)[C@@H](CO)O2)c(=O)n1 [Decitabine] (partner 2 µM)
In short: (§1)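 A single step with final 0.05% Triton X-100, 1% formaldehyde and 1 ug/ml Hoechst fixed the cells and stained nuclei 5 days after treatment. Lung cancer cell lines in 1536-well plates had been treated by pin tool the day after seeding with one drug alone or a fixed anchor-drug dose plus five library-drug doses (not always all listed) in √10 steps, and nuclei were counted on 4× images. Relative viability is the ratio of nuclei in treated wells to nuclei in vehicle wells, taken as the median of duplicate plates.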

Adavosertib + Olaparib = compound: C=CCn1c(=O)c2cnc(Nc3ccc(N4CCN(C)CC4)cc3)nc2n1-c1cccc(C(C)(C)O)n1 [Adavosertib] + O=C(c1cc(Cc2n[nH]c(=O)c3ccccc23)ccc1F)N1CCN(C(=O)C2CC2)CC1 [Olaparib] (partner 8 µM)
In short: as §1

Nelarabine + Linsitinib = compound: COc1nc(N)nc2c1ncn2[C@@H]1O[C@H](CO)[C@@H](O)[C@@H]1O [Nelarabine] + C[C@]1(O)C[C@@H](c2nc(-c3ccc4ccc(-c5ccccc5)nc4c3)c3c(N)nccn32)C1 [Linsitinib] (partner 1 µM)
In short: as §1

Adavosertib + Luminespib = compound: C=CCn1c(=O)c2cnc(Nc3ccc(N4CCN(C)CC4)cc3)nc2n1-c1cccc(C(C)(C)O)n1 [Adavosertib] + CCNC(=O)c1noc(-c2cc(C(C)C)c(O)cc2O)c1-c1ccc(CN2CCOCC2)cc1 [Luminespib] (partner 0.01 µM)
In short: as §1

| Cell Line | relative viability (Nelarabine + Decitabine; first compound 0.01 µM) | relative viability (Nelarabine + Decitabine; first compound 0.03162 µM) | relative viability (Nelarabine + Decitabine; first compound 0.1 µM) | relative viability (Nelarabine + Decitabine; first compound 0.3162 µM) | relative viability (Nelarabine + Decitabine; first compound 1 µM) | relative viability (Adavosertib + Olaparib; first compound 0.01 µM) | relative viability (Adavosertib + Olaparib; first compound 0.03162 µM) | relative viability (Adavosertib + Olaparib; first compound 0.1 µM) | relative viability (Adavosertib + Olaparib; first compound 0.3162 µM) | relative viability (Nelarabine + Linsitinib; first compound 0.01 µM) | relative viability (Nelarabine + Linsitinib; first compound 0.03162 µM) | relative viability (Nelarabine + Linsitinib; first compound 0.1 µM) | relative viability (Nelarabine + Linsitinib; first compound 0.3162 µM) | relative viability (Nelarabine + Linsitinib; first compound 1 µM) | relative viability (Adavosertib + Luminespib; first compound 0.01 µM) | relative viability (Adavosertib + Luminespib; first compound 0.03162 µM) | relative viability (Adavosertib + Luminespib; first compound 0.1 µM) | relative viability (Adavosertib + Luminespib; first compound 0.3162 µM) |
| --- | --- | --- | --- | --- | --- | --- | --- | --- | --- | --- | --- | --- | --- | --- | --- | --- | --- | --- |
| NCI-H1944 | 0.423 | 0.449 | 0.457 | 0.416 | 0.427 | 0.41 | 0.384 | 0.393 | 0.403 | 1.28 | 1.16 | 1.38 | 1.21 | 1.08 | 0.696 | 0.715 | 0.655 | 0.575 |
| COR-L 105 | 0.691 | 0.723 | 0.644 | 0.66 | 0.719 | 0.657 | 0.689 | 0.76 | 0.65 | 0.863 | 1.03 | 0.95 | 1.04 | 0.984 | 1.03 | 0.698 | 0.962 | 0.774 |
| BEN | 0.729 | 0.762 | 0.712 | 0.79 | 0.744 | 1.07 | 1.01 | 1.12 | 1.05 | 1.27 | 0.818 | 1 | 1.04 | 1.07 | 0.195 | 0.501 | 0.413 | 0.389 |
| HARA | 0.436 | 0.577 | 0.442 | 0.668 | 0.539 | 0.464 | 0.535 | 0.766 | 0.187 | 1.29 | 0.814 | 0.771 | 1.18 | 0.941 | 0.781 | 0.795 | 0.845 | 0.366 |
| NCI-H1437 | 0.627 | 0.651 | 0.568 | 0.634 | 0.557 | 0.65 | 0.613 | 0.643 | 0.566 | 1.27 | 1.05 | 0.998 | 1.08 | 1.01 | 1.07 | 1.2 | 1.17 | 1.07 |
| HCC-44 | 0.942 | 0.924 | 0.863 | 1.01 | 0.928 | 1 | 0.943 | 1.02 | 1.02 | 0.712 | 0.678 | 0.678 | 0.657 | 0.691 | 0.982 | 1.01 | 0.968 | 1.3 |
| COR-L23 | 0.532 | 0.381 | 0.408 | 0.482 | 0.446 | 0.339 | 0.34 | 0.227 | 0.163 | 1.12 | 0.996 | 1 | 0.911 | 1.06 | 0.614 | 0.61 | 0.667 | 0.232 |
| 201T | 0.869 | 0.871 | 0.837 | 0.896 | 0.829 | 0.887 | 0.882 | 0.868 | 0.818 | 1.18 | 0.942 | 1.07 | 0.958 | 0.96 | 1.1 | 1.04 | 1.05 | 1.09 |
| NCI-H23 | 0.249 | 0.272 | 0.299 | 0.348 | 0.303 | 0.339 | 0.317 | 0.24 | 0.138 | 0.749 | 0.671 | 0.613 | 0.623 | 0.622 | 0.217 | 0.252 | 0.233 | 0.21 |
| EKVX | 0.373 | 0.266 | 0.356 | 0.292 | 0.571 | 0.756 | 0.841 | 0.783 | 0.833 | 1.08 | 0.849 | 0.851 | 1.19 | 0.941 | 0.875 | 0.853 | 0.84 | 0.967 |
| NCI-H1915 | 0.261 | 0.266 | 0.258 | 0.27 | 0.268 | 0.258 | 0.277 | 0.264 | 0.269 | 1.15 | 1.08 | 1.06 | 1.1 | 1.1 | 0.912 | 0.729 | 0.752 | 0.617 |
| LU99A | 1.02 | 0.91 | 0.971 | 0.886 | 0.935 | 0.238 | 0.224 | 0.209 | 0.179 | 0.534 | 0.461 | 0.669 | 0.581 | 0.617 | 0.314 | 0.188 | 0.221 | 0.198 |
| LCLC-103H | 0.924 | 0.716 | 0.809 | 0.759 | 0.638 | 0.797 | 0.769 | 0.761 | 0.742 | 1.22 | 1.11 | 1.08 | 1.02 | 1.11 | 0.865 | 1.05 | 0.892 | 0.837 |
| LK-2 | 0.261 |  | 0.272 | 0.341 | 0.319 | 0.742 | 0.891 | 0.763 | 0.767 | 1.24 |  | 0.608 | 0.691 | 0.673 | 0.163 | 0.216 | 0.182 | 0.183 |
| SK-LU-1 | 0.815 | 0.574 | 0.638 | 0.822 | 0.597 | 0.498 | 0.461 | 0.389 | 0.249 | 1.45 | 0.835 | 1.1 | 1.11 | 1.35 | 0.19 | 0.201 | 0.249 | 0.169 |
| NCI-H1755 | 0.706 | 0.811 | 0.734 | 0.639 | 0.737 | 0.87 | 0.936 | 0.891 | 0.72 | 1.01 | 0.999 | 0.989 | 1.1 | 0.995 | 0.417 | 0.616 | 0.342 | 0.531 |
